Results published in PubChem BioAssay (NCI).
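Following 48 hours of exposure in 96-well plates, responses at five concentrations were used to interpolate endpoints linearly. The concentration for full growth arrest is given as TGI.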

Columns and labels:
Assay in all cases: NCI tumour cell line growth inhibition, 48 h
DMS 273 small cell lung = test system: DMS 273 small cell lung
DMS 114 small cell lung = test system: DMS 114 small cell lung
KM20L2 colon = test system: KM20L2 colon
DLD-1 colon = test system: DLD-1 colon
RXF-631 renal = test system: RXF-631 renal
HOP-18 NSCLC = test system: HOP-18 NSCLC

Compound | TGI (DMS 273 small cell lung) [µM] | TGI (DMS 114 small cell lung) [µM] | TGI (KM20L2 colon) [µM] | TGI (DLD-1 colon) [µM] | TGI (RXF-631 renal) [µM] | TGI (HOP-18 NSCLC) [µM]
O=C1C=CC(=O)N1Nc1ccc([N+](=O)[O-])cc1[N+](=O)[O-] | > 100 | > 100 | > 100 | > 100 |  | 
Cc1cc(=O)c2c([nH]1)NS(=O)(=O)NC2=O | > 100 |  |  | > 100 | > 100 | 
BrC/C=C/C[P+](c1ccccc1)(c1ccccc1)c1ccccc1 | 14.2 | 84 | > 100 |  | > 100 | > 100
Cc1cn(C2OC(C)(CO)C(O)C2O)c(=O)[nH]c1=O (stereo unspecified) | > 100 | > 100 |  | > 100 |  | > 100
CC(=O)N(C(C)=O)C1=C2c3ccccc3N(S(=O)(=O)c3ccccc3)C2n2c(=O)n(-c3ccccc3)c(=O)n2C1 (stereo unspecified) | > 100 |  | > 100 | > 100 |  | 86.4
CC(C(=O)n1nnc2ccccc21)N(c1ccccc1)c1ccccc1 (stereo unspecified) | > 100 |  | > 100 | > 100 |  | 
CC(=O)OCC1OC(n2cc([N+](=O)[O-])c(=O)[nH]c2=O)C(OC(C)=O)C(OC(C)=O)C1OC(C)=O (stereo unspecified) | > 100 | > 100 | > 100 | > 100 |  | > 100
C=CCNC(=S)/N=C/c1c(O)c2ccccc2oc1=O | > 100 | > 100 | > 100 | > 100 |  | > 100
Cc1c(C(=O)CSc2nc3ccccc3c(=O)n2-c2ccccc2)c(=O)n(-c2ccccc2)n1C | > 100 | > 100 | > 100 | > 100 |  | 
N=S(c1ccccc1)c1ccccc1[N+](=O)[O-] (stereo unspecified) | 34.4 | 32.7 | 41.5 | 46 |  | > 100
COCOc1ccc(Cn2c(=O)n(C)c(=O)c3c2ncn3C)cc1[N+](=O)[O-] | > 100 | > 100 | > 100 | > 100 |  | 
